Where a name gives a salt, the structure may show the parent alone.
Columns and labels:
[1] = tested on: humanen Erythrocyten, die mit resistenten Plasmodien (Pl. falciparum) infiziert waren; assay: Test model I: radiolabelled hypoxanthine incorporation (microdilution technique), alone and in combination with the antimalarial; format: cell-based; details: combination with Chloroquine; 1,0 = additivity, <0,5 = synergism
Source text: Alle Substanzen wurden zunächst alleine und dann in Kombination mit dem Antimalaria-Mittel an humanen Erythrocyten, die mit resistenten Plasmodien (Pl. falciparum) infiziert waren, getestet. Der Einbau von radioaktiv markiertem Hypoxanthin diente als Maß für das Wachstum der Parasiten. Nach der Microdilutions-Technik (Antimicrob. Agents Chemotherapy 16,710 (1979)), wurde dabei für die erfindungsgemäßen Substanzen allein keine oder nur eine geringe Hemmung des Hypoxanthin-Einbaus gefunden. In Kombination mit einem Malariamittel wurde dagegen eine deutlich synergistische Hemmung beobachtet. Die Auswertung erfolgte über den FIC-Index (eine mathematische Repräsentation eines Isobologramms). Der Wert 1,0 bedeutet Additivität der Wirkungen, ein Wert <0,5 Synergismus. Für R-Verapamil und Chloroquin erhält man den Wert 0,56. [formula] IC₅₀ = Konzentration der Prüfsubstanz, die eine 50 %ige Hemmung der Parasiten bewirkt. [A] = gemessene IC₅₀ der Substanzu A in Gegenwart einer definierten (z.B. 500 bis 125 000 ng/ml) Menge der Substanz B. [B] = gemessene IC₅₀ der Substanz B in Gegenwart einer definierten (z.B. 500 bis 125 000 ng/ml) Menge der Substanz A. IC50A = IC₅₀ der Substanz A alleine gegeben IC50B = IC₅₀ der Substanz B alleine gegeben.
Die folgenden Werte wurden in der Kombination mit Chloroquine bestimmt.

in vitro = details: rat, aortic strip
Source text: (§1) Weiter umfaßt die Tabelle drei praxisübliche Testmodelle auf cardiovasculäre Effekte. Am Gefäßstreifen der Ratte (rat aortic strip) (1. Modell) wird die Dosis bestimmt, die zu einer 50 %igen Relaxation führt, sie ist ein Maß für die gefäßerweiternde und damit blutdrucksenkende Wirkung einer Substanz. Das 2. Modell untersucht die blutdrucksenkende Wirkung am Ganztier (Ratte), bei intravenöser Gabe).
(§2) Angegeben ist jeweils, wieviel größer die Dosis der Testsubstanz sein darf als bei racemischem Verapamil, um den gleichen caridovasculären Effekt auszulösen.
(§3) Der Selektivitätsindex S der Tabelle ist das Produkt dieses Faktors mit dem AEI und beschreibt somit, um wieviel schwächer als beim racemischen Verapamil die cardiovasculären Effekte der Testsubstanz sind, wenn sie in der Resistenzbrechnung von Malariamitteln in equieffizienten Dosen eingesetzt werden.

P. yoelii NS = assay: Test model II: blood schizontocidal action in infected mice, 4-day treatment; format: in vivo, Plasmodium yoelii ssp; details: for % Parasitämie: mice, daily dose 10,0 mg/kg test substance plus 0,3 mg/kg Chloroquin, s.c., 4 days, parasitaemia one day after treatment
Source text: Zur Bestätigung und weiteren Differenzierung der resistenzbrechenden Wirkung wurden Mäuse nach dem in Ann. Trop. Med. Parasit., 72, 23 (1978) beschriebenen Modell (vgl. auch Exp. Parasitol. 17, 89 (1965), Anm. Trop. Med. Parasit. 69, 155 (1975) mit parasitär befallenden Erythrocyten beimpft und 1 Tag nach der Injektion an vier aufeinanderfolgenden Tagen behandelt. Einen Tag nach der Behandlung wurde die Parasitämie bestimmt.
Eperythozoon-coccoides-freie, männliche, Schweizer Albino-Mäuse, Gewicht zwischen 18 und 20 g, werden für alle Prüfungen benutzt.
Sie werden in Räumen mit kontrollierter Temperatur (22° + 2°C) in Kunststoffkäfigen zu je 5 Mäusen pro Käfig gehalten.
P. yoelii NS, gewonnen aus P. yoelii N: mäßig resistent gegenüber Chloroquin. Erhaltung durch zyklische Passage durch Anopheles stephensi und unter medikamentöser Belastung in der Maus (60 mg/kg s.c. einmal während der Passage) (für nähere Erläuterung siehe Ann. Trop. Med. Parasit., 72, 23 (1978)).
Männliche Mäuse werden intravenös mit parasität befallenden Erythrozyten (10⁷) vom P. yoelli NS Stamm beimpft. Danach werden die Tiere an vier aufeinanderfolgenden Tagen beginnend am Tag der Infektion einmal täglich behandelt. Die Verbindungen werden mit ®Tween 80 in sterilem, destilliertem Wasser gelöst oder suspendiert und subkutan verabreicht. In Fällen, in denen sich die Zubereitung einer wäßrigen Lösung als äußerst schwierig erweist, wird die Prüfsubstanz zunächst in Dimethylsulfoxid gelöst. Danach werden wäßrige Verdünnungen zum Gebrauch hergestellt. Die Parasitämie wird am Tag nach der letzten Behandlung bestimmt. Die unterdrückung der Parasiten im Vergleich zur unbehandelten Kontrolle, wird mittels Probitanalyse der log-Dosis-Wirkungskurve berechnet.
Mäuse, die mit dem chloroquin-resistenten Plasmodium yoelii ssp infiziert waren, wurden mit Chloroquin über 4 Tage subkutan behandelt, wie unter II.2 beschrieben.
Einen Tag nach der Behandlung wurde die Parasitämie bestimmt und mit der Kontrolle verglichen.
Der AEI (Activity Enhancement Index) ist der Quotient aus der ED₉₀ für Chloroquin alleine und der ED₉₀ für Zusatz von 10 mg/kg Testsubstanz.

in vivo [2] = details: rat, iv
Source text: Das 3. Modell untersucht ebenfalls am Ganztier die Wirkung der Testsubstanz auf das Herz.
as §2, §3

in vivo [3] = details: rat, iv; remark: listed apart in the source
Source text: as §1, §2, §3

[4] = tested on: Gefäßstreifen der Ratte (rat aortic strip); assay: in vitro
Source text: as §1, §2, §3

[5] = AEI relative to S,R-Verapamil = 1
[6] = Activity Enhancement Index: ED90 of Chloroquin alone divided by ED90 with addition of 10 mg/kg test substance

SMILES	FIC-Index [1]	selectivity ratio (in vitro)	AEI (10 mg/kg) (P. yoelii NS; [5])	AEI (10 mg/kg) (P. yoelii NS; [6])	% Parasitämie (P. yoelii NS)	EKG (AV-Block) Ratte i.v. ED (in vivo [2])	Blutdrucksenkung ED₅₀ (in vivo [3])	Ratten Aortenstreifen ED₅₀ [4]	selectivity ratio (in vivo [3])	selectivity ratio (in vivo [2])
COc1ccc(CCN(C)CCC[C@](C#N)(c2ccc(OC)c(OC)c2)C(C)C)cc1OC [R-Verapamil, reference compound]	0,56	10.2	1,6x	4,15	14,2%	4,6				
CC(C)[C@@](C#N)(CCCN(C)CCc1ccccc1)c1ccccc1 [S-Emopamil, (-)-(S)-1,7-Bis-(phenyl)-3-methylaza-7-cyano-8-methyl-nonan-hydrochlorid]	0,19	13.5	1,8x	4,5	6,7%	2,15	2,7	7,7		
COc1ccc(CCN(C)CCCC(C#N)(c2cc(OC)c(OC)c(OC)c2)C(C)C)cc1OC (single isomer, unassigned; (+)) [(+)-Gallopamil, (+)-1-(3,4-Dimethoxyphenyl)-3-methylaza-7-cyan-7-(3,4,5-trimethoxyphenyl)-8-methylnonan-hydrochlorid]	0,53	21.6	1,7x	4,4	8,6%	4,6	3,4	12,6		
COc1ccc(CCN(C)CCCC(C#N)(c2ccc(OC)c(OC)c2)C(C)C)cc1OC (racemic) [S,R-Verapamil, Verapamil, reference compound]			= 1 x	2,56		= 1				
CC(C)C(C#N)(CCCNCCc1ccccc1)c1ccccc1.Cl (stereo not shown) [Noremopamil, 1,7-Bis-(phenyl)-3-aza-7-cyano-8-methyl-nonan-hydrochlorid]	0,19	4.6	1,60x	4,1		4,6	4,3	2,9	6.9	6.9
